The structures appear in SMILES notation.

These results are taken from patent US11203591B2, “Substituted 6-azabenzimidazole compounds” (Gilead Sciences, Inc., priority 2018, dated 2021).

Sequence of human HPK1 (MAP4K1) (Q92918 17-274): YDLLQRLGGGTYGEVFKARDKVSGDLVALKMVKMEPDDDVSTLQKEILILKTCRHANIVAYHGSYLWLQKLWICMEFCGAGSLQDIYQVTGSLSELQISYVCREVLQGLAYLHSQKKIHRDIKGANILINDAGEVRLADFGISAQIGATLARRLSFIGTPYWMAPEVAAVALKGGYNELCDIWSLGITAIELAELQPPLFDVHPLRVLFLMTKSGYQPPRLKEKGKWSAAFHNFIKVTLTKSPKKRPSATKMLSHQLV

The test concerns the target human HPK1 (MAP4K1) (Homo sapiens (Human), UniProt Q92918). Kind of test: HPK1 IC50 Assay (TR-FRET peptide phosphorylation). It counts as biochemical. The conditions noted are these: recombinant HPK1 kinase domain 0.15 nM, 10 μM ATP, 1 μM STK S1 peptide; geometric mean of multiple experiments. The method, boiled down:
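Pre-activated, dually phosphorylated baculovirus-expressed HPK1 kinase domain (0.15 nM) preincubated 15 min with compound, then reacted 3 h at 25° C with 10 μM ATP and 1 μM STK S1 peptide in BES pH 7.0 buffer. Phosphopeptide read by TR-FRET (665/620 nm); four-parameter fit, geometric-mean IC50.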
In general terms: In TR-FRET formats the signal depends on donor and acceptor labels being close together.
As a reminder, the IC50 is the midpoint of a concentration-inhibition curve. On to `Cc1c(C(=O)NC2(C(F)F)CC2)cc(Nc2nc(-c3cnc4c(c3)N([C@H]3C[C@@](C)(N5CC6CCC(C5)O6)C3)C(=O)C4(C)C)cc3ncn(C(C)C)c23)c(F)c1F` [Example 228, 5-((6-(1-((1s,3s)-3-(8-Oxa-3-azabicyclo[3.2.1]octan-3-yl)-3-methylcyclobutyl)-3,3-dimethyl-2-oxo-2,3-dihydro-1H-pyrrolo[3,2-b]pyridin-6-yl)-3-isopropyl-3H-imidazo[4,5-c]pyridin-4-yl)amino)-N-(1-(difluoromethyl)cyclopropyl)-3,4-difluoro-2-methylbenzamide], for which the IC50 came to 0.3 nM.
The figure for `Cc1c(C(=O)NC2(C(F)F)CC2)cc(Nc2nc(-c3cnc4c(c3)N([C@H]3C[C@@](C)(N5CCCCCC5)C3)C(=O)C4(C)C)cc3ncn(C(C)C)c23)c(F)c1F` [Example 229, 5-((6-(1-((1s,3s)-3-(Azepan-1-yl)-3-methylcyclobutyl)-3,3-dimethyl-2-oxo-2,3-dihydro-1H-pyrrolo[3,2-b]pyridin-6-yl)-3-isopropyl-3H-imidazo[4,5-c]pyridin-4-yl)amino)-N-(1-(difluoromethyl)cyclopropyl)-3,4-difluoro-2-methylbenzamide] is 0.08 nM.
The same measure for `Cc1c(C(=O)NC2(C(F)F)CC2)cc(Nc2nc(-c3cnc4c(c3)N([C@H]3C[C@@](C)(N5CC6CCC(C6)C5)C3)C(=O)C4(C)C)cc3ncn(C(C)C)c23)c(F)c1F` [Example 230, 5-((6-(1-((1s,3s)-3-(3-Azabicyclo[3.2.1]octan-3-yl)-3-methylcyclobutyl)-3,3-dimethyl-2-oxo-2,3-dihydro-1H-pyrrolo[3,2-b]pyridin-6-yl)-3-isopropyl-3H-imidazo[4,5-c]pyridin-4-yl)amino)-N-(1-(difluoromethyl)cyclopropyl)-3,4-difluoro-2-methylbenzamide]: 0.1 nM.
The same measure for `Cc1c(C(=O)NC2(C(F)F)CC2)cc(Nc2nc(-c3cnc4c(c3)N(C3CC(C)(N5CCC6C[C@@H]6C5)C3)C(=O)C4(C)C)cc3ncn(C(C)C)c23)c(F)c1F` (stereo partly drawn) [Example 231, 5-((6-(1-((1s,3s)-3-(3-Azabicyclo[4.1.0]heptan-3-yl)-3-methylcyclobutyl)-3,3-dimethyl-2-oxo-2,3-dihydro-1H-pyrrolo[3,2-b]pyridin-6-yl)-3-isopropyl-3H-imidazo[4,5-c]pyridin-4-yl)amino)-N-(1-(difluoromethyl)cyclopropyl)-3,4-difluoro-2-methylbenzamide]: 0.1 nM.
As to `Cc1c(C(=O)NC2(C(F)F)CC2)cc(Nc2nc(-c3cnc4c(c3)N(C3CC(C)(N5CCC6C[C@@H]6C5)C3)C(=O)C4(C)C)cc3ncn(C(C)C)c23)c(F)c1F` (stereo partly drawn) [Example 232, 5-((6-(1-((1s,3s)-3-(3-azabicyclo[4.1.0]heptan-3-yl)-3-methylcyclobutyl)-3,3-dimethyl-2-oxo-2,3-dihydro-1H-pyrrolo[3,2-b]pyridin-6-yl)-3-isopropyl-3H-imidazo[4,5-c]pyridin-4-yl)amino)-N-(1-(difluoromethyl)cyclopropyl)-3,4-difluoro-2-methylbenzamide], the half-maximal inhibitory concentration (IC50) was 0.09 nM.
The same measure for `Cc1c(C(=O)NC2(C(F)F)CC2)cc(Nc2nc(-c3cnc4c(c3)N(C3CC(C)(N5CCC6C[C@@H]6C5)C3)C(=O)C4(C)C)cc3ncn(C(C)C)c23)c(F)c1F` (stereo partly drawn) [Example 233, 5-((6-(1-((1s,3s)-3-(3-azabicyclo[4.1.0]heptan-3-yl)-3-methylcyclobutyl)-3,3-dimethyl-2-oxo-2,3-dihydro-1H-pyrrolo[3,2-b]pyridin-6-yl)-3-isopropyl-3H-imidazo[4,5-c]pyridin-4-yl)amino)-N-(1-(difluoromethyl)cyclopropyl)-3,4-difluoro-2-methylbenzamide]: 0.08 nM; for `CC(C)n1cnc2cc(-c3cnc4c(c3)N([C@H]3C[C@@](C)(N5CC6CC6C5)C3)C(=O)C4(C)C)nc(Nc3cc(C(=O)NC4(C(F)F)CC4)c(Cl)c(F)c3F)c21` (stereo partly drawn) [Example 234, 5-((6-(1-((1s,3s)-3-(3-Azabicyclo[3.1.0]hexan-3-yl)-3-methylcyclobutyl)-3,3-dimethyl-2-oxo-2,3-dihydro-1H-pyrrolo[3,2-b]pyridin-6-yl)-3-isopropyl-3H-imidazo[4,5-c]pyridin-4-yl)amino)-2-chloro-N-(1-(difluoromethyl)cyclopropyl)-3,4-difluorobenzamide]: 0.3 nM.
The same measure for `Cc1cc(F)c(Nc2nc(-c3ccc4c(c3)N([C@H]3C[C@@](C)(N5CCCCC5)C3)C(=O)C4(C)C)cc3ncn(C(C)C)c23)cc1C(=O)NC1(C(F)F)CC1` [Example 235, N-(1-(difluoromethyl)cyclopropyl)-5-((6-(3,3-dimethyl-1-((1s,3s)-3-methyl-3-(piperidin-1-yl)cyclobutyl)-2-oxoindolin-6-yl)-3-isopropyl-3H-imidazo[4,5-c]pyridin-4-yl)amino)-4-fluoro-2-methylbenzamide]: 0.1 nM; for `Cc1c(C(=O)NC2(C(F)F)CC2)cc(Nc2nc(-c3ccc4c(c3)N([C@H]3C[C@@](C)(N5CCCCC5)C3)C(=O)C4(C)C)cc3ncn(C(C)C)c23)c(F)c1F` [Example 236, N-(1-(Difluoromethyl)cyclopropyl)-5-((6-(3,3-dimethyl-1-((1s,3s)-3-methyl-3-(piperidin-1-yl)cyclobutyl)-2-oxoindolin-6-yl)-3-isopropyl-3H-imidazo[4,5-c]pyridin-4-yl)amino)-3,4-difluoro-2-methylbenzamide]: 0.07 nM.
Regarding `Cc1c(C(=O)NC2(C(F)F)CC2)cc(Nc2nc(-c3ccc4c(c3)N([C@H]3C[C@@](C)(N5CCCCC5)C3)CC4(C)C)cc3ncn(C(C)C)c23)c(F)c1F` [Example 237, N-(1-(Difluoromethyl)cyclopropyl)-5-((6-(3,3-dimethyl-1-((1s,3s)-3-methyl-3-(piperidin-1-yl)cyclobutyl)indolin-6-yl)-3-isopropyl-3H-imidazo[4,5-c]pyridin-4-yl)amino)-3,4-difluoro-2-methylbenzamide], the IC50 came to 0.3 nM.
The same measure for `CC(C)n1cnc2cc(-c3ccc4c(c3)N([C@H]3C[C@@](C)(N5CCCCC5)C3)C(=O)C4(C)C)nc(Nc3cc(C(=O)NC4(C(F)F)CC4)ccc3F)c21` [Example 238, N-(1-(Difluoromethyl)cyclopropyl)-3-((6-(3,3-dimethyl-1-((1s,3s)-3-methyl-3-(piperidin-1-yl)cyclobutyl)-2-oxoindolin-6-yl)-3-isopropyl-3H-imidazo[4,5-c]pyridin-4-yl)amino)-4-fluorobenzamide]: 0.02 nM; for `CCNC(=O)c1cc(Nc2nc(-c3ccc4c(c3)N([C@H]3C[C@@](C)(N5CCCCC5)C3)C(=O)C4(C)C)cc3ncn(C(C)C)c23)c(F)c(F)c1C` [Example 239, 5-((6-(3,3-Dimethyl-1-((1s,3s)-3-methyl-3-(piperidin-1-yl)cyclobutyl)-2-oxoindolin-6-yl)-3-isopropyl-3H-imidazo[4,5-c]pyridin-4-yl)amino)-N-ethyl-3,4-difluoro-2-methylbenzamide]: 0.04 nM; for `CCNC(=O)c1ccc(F)c(Nc2nc(-c3ccc4c(c3)N([C@H]3C[C@@](C)(N5CCCCC5)C3)C(=O)C4(C)C)cc3ncn(C(C)C)c23)c1` [Example 240, 3-((6-(3,3-Dimethyl-1-((1s,3s)-3-methyl-3-(piperidin-1-yl)cyclobutyl)-2-oxoindolin-6-yl)-3-isopropyl-3H-imidazo[4,5-c]pyridin-4-yl)amino)-N-ethyl-4-fluorobenzamide]: 0.09 nM.
Take `CC(C)n1cnc2cc(-c3ccc4c(c3)N([C@H]3C[C@@](C)(N5CCCCC5)C3)C(=O)C4(C)C)nc(Nc3cc(C(=O)NC4(C(F)F)CC4)c(Cl)c(F)c3F)c21` [Example 241, 2-Chloro-N-(1-(difluoromethyl)cyclopropyl)-5-((6-(3,3-dimethyl-1-((1s,3s)-3-methyl-3-(piperidin-1-yl)cyclobutyl)-2-oxoindolin-6-yl)-3-isopropyl-3H-imidazo[4,5-c]pyridin-4-yl)amino)-3,4-difluorobenzamide]: the concentration for half-maximal inhibition (IC50) was determined as 0.1 nM.
`CC(C)n1cnc2cc(-c3cnc4c(c3)N([C@H]3C[C@@](C)(N5CCCCC5)C3)C(=O)C4(C)C)nc(Nc3cc(C(=O)NC4(C(F)F)CC4)cc(F)c3F)c21` [Example 242, N-(1-(difluoromethyl)cyclopropyl)-3-((6-(3,3-dimethyl-1-((1s,3s)-3-methyl-3-(piperidin-1-yl)cyclobutyl)-2-oxo-2,3-dihydro-1H-pyrrolo[3,2-b]pyridin-6-yl)-3-isopropyl-3H-imidazo[4,5-c]pyridin-4-yl)amino)-4,5-difluorobenzamide]: the IC50 came to 0.07 nM.
The same measure for `CC(C)n1cnc2cc(-c3ccc4c(c3)N([C@H]3C[C@@](C)(N5CCCCC5)C3)C(=O)C4(C)C)nc(Nc3cc(C(=O)NC4(C(F)F)CC4)cc(F)c3F)c21` [Example 243, N-(1-(difluoromethyl)cyclopropyl)-3-((6-(3,3-dimethyl-1-((1s,3s)-3-methyl-3-(piperidin-1-yl)cyclobutyl)-2-oxoindolin-6-yl)-3-isopropyl-3H-imidazo[4,5-c]pyridin-4-yl)amino)-4,5-difluorobenzamide]: 0.05 nM; for `CC(C)n1cnc2cc(-c3ccc4c(c3)N([C@H]3C[C@@H](N5CCCCC5)C3)C(=O)C4(C)C)nc(Nc3cc(C(=O)NC4(C(F)F)CC4)c(Cl)c(F)c3F)c21` [Example 244, 2-chloro-N-(1-(difluoromethyl)cyclopropyl)-5-((6-(3,3-dimethyl-2-oxo-1-((1s,3s)-3-(piperidin-1-yl)cyclobutyl)indolin-6-yl)-3-isopropyl-3H-imidazo[4,5-c]pyridin-4-yl)amino)-3,4-difluorobenzamide]: 0.05 nM.
The figure for `CC(C)n1cnc2cc(-c3cnc4c(c3)N([C@H]3C[C@@H](N5CCCCC5)C3)C(=O)C4(C)C)nc(Nc3cc(C(=O)NC4(C(F)F)CC4)c(Cl)c(F)c3F)c21` [Example 245, 2-chloro-N-(1-(difluoromethyl)cyclopropyl)-5-((6-(3,3-dimethyl-2-oxo-1-((1s,3s)-3-(piperidin-1-yl)cyclobutyl)-2,3-dihydro-1H-pyrrolo[3,2-b]pyridin-6-yl)-3-isopropyl-3H-imidazo[4,5-c]pyridin-4-yl)amino)-3,4-difluorobenzamide] is 0.1 nM.
